# Results taken from patent US12037324B2, “Biarylmethyl heterocycles” (Université de Montréal, priority 2016, dated 2024).
# What was measured:
# hAT1R [1] = molecular target: T1, hAT1R (Homo sapiens, UniProt P30556); assay: cell-based
# T1 sequence (P30556 1-359): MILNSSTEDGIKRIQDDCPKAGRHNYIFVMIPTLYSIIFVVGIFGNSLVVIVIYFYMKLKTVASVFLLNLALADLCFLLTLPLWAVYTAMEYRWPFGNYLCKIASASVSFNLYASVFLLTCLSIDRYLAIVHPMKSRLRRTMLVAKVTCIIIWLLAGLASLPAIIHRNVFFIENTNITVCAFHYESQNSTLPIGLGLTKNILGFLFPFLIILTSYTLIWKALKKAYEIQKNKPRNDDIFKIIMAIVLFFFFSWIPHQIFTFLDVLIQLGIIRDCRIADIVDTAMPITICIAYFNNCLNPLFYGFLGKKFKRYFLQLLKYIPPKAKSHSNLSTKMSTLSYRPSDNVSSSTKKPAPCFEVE
# AGTR1 [2] = molecular target: T2, AGTR1 (Homo sapiens, UniProt P30556); assay: DiscoveRx IP1 accumulation assay (HTRF), agonist mode, Pathunter CHO-K1 AGTR1 β-arrestin cell line; format: cell-based; conditions: for EC50: read-out: IP-1 EC50
# T2 construct: host or cells: Pathunter CHO-K1 AGTR1 β-arrestin cell line (CHO-K1)
# T2 sequence (P30556 1-359): T1 sequence (P30556 1-359)
# Outline: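 Agonist mode in CHO-K1 AGTR1 β-arrestin cells plated 14-16 h before; compounds at varying concentrations for 90 min at 37° C, IP1 accumulation read by HTRF (D2-conjugate and anti-IP1 cryptate, 20 min room temperature). EC50 from 4-parameter logistic fit; activity given as percentage of maximal AII effect.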
# hAT1R [3] = molecular target: T1, hAT1R; assay: cell-based; conditions: agonist mode; for EC50: read-out: BRET P63 EC50
# AGTR1 [4] = molecular target: T2, AGTR1; assay: DiscoveRx β-arrestin2 recruitment assay (enzyme complementation, Pathunter CHO-K1 AGTR1 β-arrestin cell line); format: cell-based; conditions: DiscoveRx β-arrestin2 recruitment; for DiscoveRx β-arrestin2 Ymax (%): maximal response
# Outline: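 Chemiluminescent enzyme-complementation read-out of β-arrestin2 recruitment to AGTR1 in engineered CHO-K1 cells after 90 min compound exposure at 37° C. Values are 4-parameter logistic EC50s in agonist mode, IC50s in antagonist mode, with efficacy relative to the maximal All response.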
# hAT1R [5] = molecular target: T1, hAT1R; assay: BRET β-arrestin2 biosensor assay, higher receptor expression (hAT1R 5 ng/well), HEK293 cells; format: cell-based; conditions: for EC50: High AT1R Expression
# [6] = Low AT1R Expression, read-out: BRET β-Arrestin2 Low AT1R Expression EC50
# [7] = section of the 42nd table ending at r951, example numbering restarts after the DiscoveRx section, read-out: β-arrestin2 EC50
compound,measurement,setting,value
CCc1nc2c(C)cc(C)nc2n1Cc1ccc(-c2cc(-c3nccs3)ccc2-c2nn[nH]n2)cc1 [Example 56],BRET β-Arrestin2 Low AT1R Expression Ymax (%),hAT1R [1]; Low AT1R Expression,14.2%
same,EC50,hAT1R [1]; [6],54 nM
same,EC50,AGTR1 [2],> 100000 nM
same,BRET P63 Ymax,hAT1R [3],4.0%
same,EC50,hAT1R [3],42.6 nM
same,EC50,AGTR1 [4],58.3 nM
same,DiscoveRx β-arrestin2 Ymax (%),AGTR1 [4],20.8%
same,BRET β-Arrestin2 High AT1R Expression Ymax (%),hAT1R [5],63.0%
same,EC50,hAT1R [5],48.9 nM
CCc1nc2c(C)cc(C)nc2n1Cc1ccc(-c2cc(-c3cn(CCO)nn3)ccc2-c2nnn[nH]2)cc1 [Example 235],EC50,hAT1R [1]; [7],129 nM
same,IP-1 Ymax (%),AGTR1 [2],14.9%
same,EC50,AGTR1 [2],213 nM
same,BRET P63 Ymax,hAT1R [3],17.7%
same,EC50,hAT1R [3],161 nM
same,EC50,AGTR1 [4],56.6 nM
same,DiscoveRx β-arrestin2 Ymax (%),AGTR1 [4],56.0%
same,BRET β-Arrestin2 High AT1R Expression Ymax (%),hAT1R [5],89.5%
same,EC50,hAT1R [5],29.6 nM
CCc1nc2c(C)cc(C)nc2n1Cc1ccc(-c2cc(-n3cc(C4CCCC4)nn3)ccc2-c2nnn[nH]2)cc1 [Example 230],EC50,hAT1R [1]; [7],140 nM
same,IP-1 Ymax (%),AGTR1 [2],12.7%
same,EC50,AGTR1 [2],340 nM
same,EC50,hAT1R [3],> 100000 nM
same,EC50,AGTR1 [4],63.1 nM
same,DiscoveRx β-arrestin2 Ymax (%),AGTR1 [4],16.7%
same,BRET β-Arrestin2 High AT1R Expression Ymax (%),hAT1R [5],53.5%
same,EC50,hAT1R [5],61.2 nM
"CCc1nc2c(C)cc(C)nc2n1Cc1ccc(-c2cc(-c3ccccc3)ccc2-c2nnn[nH]2)nc1 [Example 176, 3-((6-(4-(1H-tetrazol-5-yl)-[1,1′-biphenyl]-3-yl)pyridin-3-yl)methyl)-2-ethyl-5,7-dimethyl-3H-imidazo[4,5-b]pyridine]",EC50,hAT1R [1]; [7],30.6 nM
same,IP-1 Ymax (%),AGTR1 [2],9.8%
same,EC50,AGTR1 [2],48.9 nM
same,EC50,hAT1R [3],> 100000 nM
same,EC50,AGTR1 [4],31.8 nM
same,DiscoveRx β-arrestin2 Ymax (%),AGTR1 [4],32.0%
same,BRET β-Arrestin2 High AT1R Expression Ymax (%),hAT1R [5],79.1%
same,EC50,hAT1R [5],25.5 nM
CCc1nc2c(C)cc(C)nc2n1Cc1ncc(-c2cc(-c3ccccc3)ccc2-c2nnn[nH]2)cn1 [Example 190],EC50,hAT1R [1]; [7],154 nM
same,IP-1 Ymax (%),AGTR1 [2],17.5%
same,EC50,AGTR1 [2],485 nM
same,BRET P63 Ymax,hAT1R [3],16.4%
same,EC50,hAT1R [3],432 nM
same,EC50,AGTR1 [4],138 nM
same,DiscoveRx β-arrestin2 Ymax (%),AGTR1 [4],57.0%
same,BRET β-Arrestin2 High AT1R Expression Ymax (%),hAT1R [5],88.8%
same,EC50,hAT1R [5],83.6 nM
CCc1nc2c(C)cc(C)nc2n1Cc1ccc(-c2cc(N3CCCC(F)(F)C3)ccc2-c2nn[nH]n2)cc1 [Example 83],BRET β-Arrestin2 Low AT1R Expression Ymax (%),hAT1R [1]; Low AT1R Expression,43.1%
same,EC50,hAT1R [1]; [6],152 nM
same,IP-1 Ymax (%),AGTR1 [2],9.0%
same,EC50,AGTR1 [2],26.9 nM
same,BRET P63 Ymax,hAT1R [3],8.2%
same,EC50,hAT1R [3],54.8 nM
same,EC50,AGTR1 [4],23.9 nM
same,DiscoveRx β-arrestin2 Ymax (%),AGTR1 [4],40.5%
same,BRET β-Arrestin2 High AT1R Expression Ymax (%),hAT1R [5],87.3%
same,EC50,hAT1R [5],52.1 nM
CCCn1cc(-c2ccc(-c3nnn[nH]3)c(-c3ccc(Cn4c(CC)nc5c(C)cc(C)nc54)cc3)c2)nn1 [Example 236],EC50,hAT1R [1]; [7],17.3 nM
same,IP-1 Ymax (%),AGTR1 [2],19.2%
same,EC50,AGTR1 [2],48.2 nM
same,BRET P63 Ymax,hAT1R [3],36.2%
same,EC50,hAT1R [3],34.6 nM
same,EC50,AGTR1 [4],12.5 nM
same,DiscoveRx β-arrestin2 Ymax (%),AGTR1 [4],60.8%
same,BRET β-Arrestin2 High AT1R Expression Ymax (%),hAT1R [5],93.3%
same,EC50,hAT1R [5],3.6 nM
CCc1nc2c(C)cc(C)nc2n1Cc1ccc(-c2cc(-c3cc(C)ccn3)ccc2-c2nn[nH]n2)cc1 [Example 64],BRET β-Arrestin2 Low AT1R Expression Ymax (%),hAT1R [1]; Low AT1R Expression,98.7%
same,EC50,hAT1R [1]; [6],3.1 nM
same,IP-1 Ymax (%),AGTR1 [2],30.8%
same,EC50,AGTR1 [2],23.2 nM
same,BRET P63 Ymax,hAT1R [3],41.3%
same,EC50,hAT1R [3],2.6 nM
same,EC50,AGTR1 [4],6.9 nM
same,DiscoveRx β-arrestin2 Ymax (%),AGTR1 [4],67.8%
same,BRET β-Arrestin2 High AT1R Expression Ymax (%),hAT1R [5],92.5%
same,EC50,hAT1R [5],1.9 nM
CCc1nc2c(C)cc(C)nc2n1Cc1ccc(-c2cc(-c3cc(C)cc(C)c3)ccc2-c2nn[nH]n2)cc1 [Example 9],BRET β-Arrestin2 Low AT1R Expression Ymax (%),hAT1R [1]; Low AT1R Expression,80.3%
same,EC50,hAT1R [1]; [6],9.4 nM
same,IP-1 Ymax (%),AGTR1 [2],7.1%
same,EC50,AGTR1 [2],8.7 nM
same,BRET P63 Ymax,hAT1R [3],14.2%
same,EC50,hAT1R [3],19.5 nM
same,EC50,AGTR1 [4],3.7 nM
same,DiscoveRx β-arrestin2 Ymax (%),AGTR1 [4],66.7%
same,BRET β-Arrestin2 High AT1R Expression Ymax (%),hAT1R [5],87.8%
same,EC50,hAT1R [5],5.6 nM
CCc1nc2c(C)cc(C)nc2n1Cc1ccc(-c2cc(-n3cccn3)ccc2-c2nn[nH]n2)cc1 [Example 25],BRET β-Arrestin2 Low AT1R Expression Ymax (%),hAT1R [1]; Low AT1R Expression,10.1%
same,EC50,hAT1R [1]; [6],32.9 nM
same,IP-1 Ymax (%),AGTR1 [2],6.7%
same,EC50,AGTR1 [2],40.8 nM
same,EC50,hAT1R [3],> 100000 nM
same,EC50,AGTR1 [4],15.9 nM
same,DiscoveRx β-arrestin2 Ymax (%),AGTR1 [4],23.1%
same,BRET β-Arrestin2 High AT1R Expression Ymax (%),hAT1R [5],74.5%
same,EC50,hAT1R [5],19.8 nM
"CCCC1=NC2(CCCC2)C(=O)N1Cc1ccc(-c2cc(-c3ccccc3)ccc2-c2nn[nH]n2)cc1 [Example 114, 3-((6′-(2H-tetrazol-5-yl)-[1,1′:3′,1″-terphenyl]-4-yl)methyl)-2-propyl-1,3-diazaspiro[4.4]non-1-en-4-one]",BRET β-Arrestin2 Low AT1R Expression Ymax (%),hAT1R [1]; Low AT1R Expression,57.2%
same,EC50,hAT1R [1]; [6],36.6 nM
same,IP-1 Ymax (%),AGTR1 [2],8.3%
same,EC50,AGTR1 [2],122 nM
same,BRET P63 Ymax,hAT1R [3],11.8%
same,EC50,hAT1R [3],66.5 nM
same,EC50,AGTR1 [4],49.9 nM
same,DiscoveRx β-arrestin2 Ymax (%),AGTR1 [4],46.5%
same,BRET β-Arrestin2 High AT1R Expression Ymax (%),hAT1R [5],89.2%
same,EC50,hAT1R [5],11.9 nM
CCc1nc2c(C)cc(C)nc2n1Cc1ccc(-c2cc(-c3ccccc3O)ccc2-c2nnn[nH]2)cn1 [Example 178],EC50,hAT1R [1]; [7],19.4 nM
same,IP-1 Ymax (%),AGTR1 [2],20.8%
same,EC50,AGTR1 [2],21.5 nM
same,BRET P63 Ymax,hAT1R [3],19.6%
same,EC50,hAT1R [3],25.6 nM
same,EC50,AGTR1 [4],7.1 nM
same,DiscoveRx β-arrestin2 Ymax (%),AGTR1 [4],75.6%
same,BRET β-Arrestin2 High AT1R Expression Ymax (%),hAT1R [5],89.3%
same,EC50,hAT1R [5],4.8 nM
CCCc1cn(-c2ccc(-c3nnn[nH]3)c(-c3ccc(Cn4c(CC)nc5c(C)cc(C)nc54)cc3)c2)nn1 [Example 228],EC50,hAT1R [1]; [7],210 nM
same,IP-1 Ymax (%),AGTR1 [2],13.0%
same,EC50,AGTR1 [2],147 nM
same,BRET P63 Ymax,hAT1R [3],11.4%
same,EC50,hAT1R [3],125 nM
same,EC50,AGTR1 [4],30.4 nM
same,DiscoveRx β-arrestin2 Ymax (%),AGTR1 [4],32.1%
same,BRET β-Arrestin2 High AT1R Expression Ymax (%),hAT1R [5],93.1%
same,EC50,hAT1R [5],31.9 nM
"CCCCC1=NC2(CCOC2)C(=O)N1Cc1ccc(-c2cc(-c3ccccc3)ccc2-c2nnn[nH]2)cc1 (single isomer, unassigned) [Example 146]",BRET β-Arrestin2 Low AT1R Expression Ymax (%),hAT1R [1]; Low AT1R Expression,35.0%
same,EC50,hAT1R [1]; [6],52.6 nM
same,IP-1 Ymax (%),AGTR1 [2],8.3%
same,EC50,AGTR1 [2],76.2 nM
same,EC50,hAT1R [3],> 100000 nM
same,EC50,AGTR1 [4],31.6 nM
same,DiscoveRx β-arrestin2 Ymax (%),AGTR1 [4],34.0%
same,BRET β-Arrestin2 High AT1R Expression Ymax (%),hAT1R [5],85.6%
same,EC50,hAT1R [5],38.2 nM
CCc1nc2c(C)cc(C)nc2n1Cc1ccc(-c2cc(-c3ccccc3)ccc2-c2nnn[nH]2)cn1 [Example 179],EC50,hAT1R [1]; [7],61.4 nM
same,IP-1 Ymax (%),AGTR1 [2],12.2%
same,EC50,AGTR1 [2],81.7 nM
same,BRET P63 Ymax,hAT1R [3],11.6%
same,EC50,hAT1R [3],52.3 nM
same,EC50,AGTR1 [4],40.7 nM
same,DiscoveRx β-arrestin2 Ymax (%),AGTR1 [4],58.3%
same,BRET β-Arrestin2 High AT1R Expression Ymax (%),hAT1R [5],90.6%
same,EC50,hAT1R [5],20.7 nM
